Measured values from ChEMBL document CHEMBL4507315 (2021).

Key:
[1] = test system: Phosphatidylinositol 4,5-bisphosphate 3-kinase catalytic subunit alpha isoform (Homo sapiens), P42336 [M1043I]; conditions: Compound concentration 100.0 nM
[2] = target: Mitogen-activated protein kinase 10 (Homo sapiens) (UniProt P53779); conditions: Compound concentration 100.0 nM
[3] = target: Tyrosine-protein kinase JAK1 (Homo sapiens) (UniProt P23458); conditions: Compound concentration 100.0 nM
[4] = target: Serine/threonine-protein kinase PAK 4 (Homo sapiens) (UniProt O96013); conditions: Compound concentration 100.0 nM
[5] = target: Activin receptor type-1B (Homo sapiens) (UniProt P36896); conditions: Compound concentration 100.0 nM
[6] = target: Dual specificity mitogen-activated protein kinase kinase 7 (Homo sapiens) (UniProt O14733); conditions: Compound concentration 100.0 nM
[7] = target: Ephrin type-A receptor 2 (Homo sapiens) (UniProt P29317); conditions: Compound concentration 100.0 nM
[8] = target: Tyrosine-protein kinase Blk (Homo sapiens) (UniProt P51451); conditions: Compound concentration 100.0 nM
[9] = target: Mitotic checkpoint serine/threonine-protein kinase BUB1 (Homo sapiens) (UniProt O43683); conditions: Compound concentration 100.0 nM
[10] = target: Cyclin-dependent kinase 8 (Homo sapiens) (UniProt P49336); conditions: Compound concentration 100.0 nM
[11] = target: Calcium/calmodulin-dependent protein kinase kinase 1 (Homo sapiens) (UniProt Q8N5S9); conditions: Compound concentration 100.0 nM
[12] = target: Tyrosine-protein kinase Srms (Homo sapiens) (UniProt Q9H3Y6); conditions: Compound concentration 100.0 nM
[13] = target: Serine/threonine-protein kinase WNK1 (Homo sapiens) (UniProt Q9H4A3); conditions: Compound concentration 100.0 nM
[14] = target: Dual specificity tyrosine-phosphorylation-regulated kinase 1B (Homo sapiens) (UniProt Q9Y463); conditions: Compound concentration 100.0 nM
[15] = target: Interleukin-1 receptor-associated kinase 1 (Homo sapiens) (UniProt P51617); conditions: Compound concentration 100.0 nM
[16] = target: Serine/threonine-protein kinase VRK2 (Homo sapiens) (UniProt Q86Y07); conditions: Compound concentration 100.0 nM
[17] = test system: Mast/stem cell growth factor receptor Kit (Homo sapiens), P10721 [D816V]; conditions: Compound concentration 100.0 nM
[18] = target: 5-hydroxytryptamine receptor 1A (Homo sapiens) (UniProt P08908); conditions: Compound concentration 10.0 uM
[19] = target: Serine/threonine-protein kinase 17A (Homo sapiens) (UniProt Q9UEE5); conditions: Compound concentration 100.0 nM
[20] = target: Serine/threonine-protein kinase ICK (Homo sapiens) (UniProt Q9UPZ9); conditions: Compound concentration 100.0 nM
[21] = target: Phosphatidylinositol 4-phosphate 3-kinase C2 domain-containing subunit beta (Homo sapiens) (UniProt O00750); conditions: Compound concentration 100.0 nM
[22] = target: Dual specificity tyrosine-phosphorylation-regulated kinase 1A (Homo sapiens) (UniProt Q13627); conditions: Compound concentration 100.0 nM
[23] = target: Serine/threonine-protein kinase RIO3 (Homo sapiens) (UniProt O14730); conditions: Compound concentration 100.0 nM
[24] = target: Casein kinase I isoform alpha-like (Homo sapiens) (UniProt Q8N752); conditions: Compound concentration 100.0 nM
[25] = test system: Epidermal growth factor receptor (Homo sapiens), P00533 [T790M]; conditions: Compound concentration 100.0 nM
[26] = test system: Receptor-type tyrosine-protein kinase FLT3 (Homo sapiens), P36888 [UNDEFINED MUTATION]; conditions: Compound concentration 100.0 nM
[27] = target: Mitogen-activated protein kinase kinase kinase 19 (Homo sapiens) (UniProt Q56UN5); conditions: Compound concentration 100.0 nM
[28] = target: Rhodopsin kinase GRK1 (Homo sapiens) (UniProt Q15835); conditions: Compound concentration 100.0 nM
[29] = target: Mitogen-activated protein kinase 7 (Homo sapiens) (UniProt Q13164); conditions: Compound concentration 100.0 nM
[30] = target: Ankyrin repeat and protein kinase domain-containing protein 1 (Homo sapiens) (UniProt Q8NFD2); conditions: Compound concentration 100.0 nM
[31] = target: Beta-3 adrenergic receptor (Homo sapiens) (UniProt P13945); conditions: Compound concentration 10.0 uM
[32] = target: Angiopoietin-1 receptor (Homo sapiens) (UniProt Q02763); conditions: Compound concentration 100.0 nM
[33] = target: Macrophage colony-stimulating factor 1 receptor (Homo sapiens) (UniProt P07333); conditions: Compound concentration 100.0 nM
[34] = target: Maternal embryonic leucine zipper kinase (Homo sapiens) (UniProt Q14680); conditions: Compound concentration 100.0 nM
[35] = target: Mitogen-activated protein kinase kinase kinase 15 (Homo sapiens) (UniProt Q6ZN16); conditions: Compound concentration 100.0 nM
[36] = target: Mitogen-activated protein kinase kinase kinase kinase 3 (Homo sapiens) (UniProt Q8IVH8); conditions: Compound concentration 100.0 nM
[37] = target: Atypical kinase COQ8B, mitochondrial (Homo sapiens) (UniProt Q96D53); conditions: Compound concentration 100.0 nM
[38] = target: Cyclin-dependent kinase 16 (Homo sapiens) (UniProt Q00536); conditions: Compound concentration 100.0 nM
[39] = target: AP2-associated protein kinase 1 (Homo sapiens) (UniProt Q2M2I8); conditions: Compound concentration 100.0 nM
[40] = test system: eIF-2-alpha kinase GCN2 (Homo sapiens), Q9P2K8 [S808G]; conditions: Compound concentration 100.0 nM
[41] = target: LIM domain kinase 1 (Homo sapiens) (UniProt P53667); conditions: Compound concentration 100.0 nM
[42] = target: Tyrosine-protein kinase CSK (Homo sapiens) (UniProt P41240); conditions: Compound concentration 100.0 nM
[43] = test system: Tyrosine-protein kinase ABL1 (Homo sapiens), P00519 [H396P]; conditions: Compound concentration 100.0 nM
[44] = target: MAP kinase-interacting serine/threonine-protein kinase 1 (Homo sapiens) (UniProt Q9BUB5); conditions: Compound concentration 100.0 nM
[45] = target: Tyrosine-protein kinase FRK (Homo sapiens) (UniProt P42685); conditions: Compound concentration 100.0 nM

Sequence of Dual specificity tyrosine-phosphorylation-regulated kinase 1B (Homo sapiens) (Q9Y463 whole entry, looked up): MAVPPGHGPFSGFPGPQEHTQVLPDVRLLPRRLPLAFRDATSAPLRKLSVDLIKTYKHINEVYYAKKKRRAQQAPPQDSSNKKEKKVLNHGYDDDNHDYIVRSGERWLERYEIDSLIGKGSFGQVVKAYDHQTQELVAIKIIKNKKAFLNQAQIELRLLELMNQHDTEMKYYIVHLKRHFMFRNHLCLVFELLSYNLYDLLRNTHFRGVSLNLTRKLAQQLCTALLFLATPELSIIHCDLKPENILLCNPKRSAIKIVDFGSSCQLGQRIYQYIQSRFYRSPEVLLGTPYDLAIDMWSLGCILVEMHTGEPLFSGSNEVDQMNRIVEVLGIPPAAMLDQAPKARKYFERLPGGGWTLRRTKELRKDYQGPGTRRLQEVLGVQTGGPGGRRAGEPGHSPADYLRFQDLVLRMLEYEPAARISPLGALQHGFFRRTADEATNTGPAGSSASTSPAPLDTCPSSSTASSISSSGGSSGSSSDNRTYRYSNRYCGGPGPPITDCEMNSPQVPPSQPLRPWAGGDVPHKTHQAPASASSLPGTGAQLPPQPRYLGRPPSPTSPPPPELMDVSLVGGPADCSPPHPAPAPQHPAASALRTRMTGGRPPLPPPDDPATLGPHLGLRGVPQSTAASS
Sequence of Atypical kinase COQ8B, mitochondrial (Homo sapiens) (Q96D53 whole entry): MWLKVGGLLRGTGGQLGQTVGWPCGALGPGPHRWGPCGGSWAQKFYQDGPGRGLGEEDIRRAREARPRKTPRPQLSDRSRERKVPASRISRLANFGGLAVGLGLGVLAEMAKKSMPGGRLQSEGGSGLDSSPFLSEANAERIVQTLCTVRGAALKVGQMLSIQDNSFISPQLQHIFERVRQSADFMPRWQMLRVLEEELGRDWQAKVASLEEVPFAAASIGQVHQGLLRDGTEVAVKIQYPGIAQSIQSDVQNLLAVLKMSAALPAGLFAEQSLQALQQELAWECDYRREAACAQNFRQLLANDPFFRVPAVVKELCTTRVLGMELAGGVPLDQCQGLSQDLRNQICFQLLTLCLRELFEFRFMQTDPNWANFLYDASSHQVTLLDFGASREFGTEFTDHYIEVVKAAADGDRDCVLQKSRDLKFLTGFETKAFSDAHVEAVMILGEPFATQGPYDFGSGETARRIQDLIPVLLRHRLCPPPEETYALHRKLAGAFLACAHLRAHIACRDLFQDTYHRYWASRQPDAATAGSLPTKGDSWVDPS
Sequence of Mitogen-activated protein kinase 10 (Homo sapiens) (P53779 whole entry): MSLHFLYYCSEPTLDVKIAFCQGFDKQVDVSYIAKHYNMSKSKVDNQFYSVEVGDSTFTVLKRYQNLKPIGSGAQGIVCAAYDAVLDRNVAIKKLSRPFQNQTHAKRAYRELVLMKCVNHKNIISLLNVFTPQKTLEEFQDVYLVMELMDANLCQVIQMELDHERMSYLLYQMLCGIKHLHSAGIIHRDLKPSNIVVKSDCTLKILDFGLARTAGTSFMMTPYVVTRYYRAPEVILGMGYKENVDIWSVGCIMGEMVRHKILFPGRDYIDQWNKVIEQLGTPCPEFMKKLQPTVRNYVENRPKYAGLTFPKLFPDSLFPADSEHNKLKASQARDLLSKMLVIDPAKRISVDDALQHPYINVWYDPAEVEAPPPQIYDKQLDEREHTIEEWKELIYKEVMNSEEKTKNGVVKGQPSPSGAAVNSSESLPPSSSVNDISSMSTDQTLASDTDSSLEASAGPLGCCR
Sequence of Mitogen-activated protein kinase kinase kinase 19 (Homo sapiens) (Q56UN5 whole entry): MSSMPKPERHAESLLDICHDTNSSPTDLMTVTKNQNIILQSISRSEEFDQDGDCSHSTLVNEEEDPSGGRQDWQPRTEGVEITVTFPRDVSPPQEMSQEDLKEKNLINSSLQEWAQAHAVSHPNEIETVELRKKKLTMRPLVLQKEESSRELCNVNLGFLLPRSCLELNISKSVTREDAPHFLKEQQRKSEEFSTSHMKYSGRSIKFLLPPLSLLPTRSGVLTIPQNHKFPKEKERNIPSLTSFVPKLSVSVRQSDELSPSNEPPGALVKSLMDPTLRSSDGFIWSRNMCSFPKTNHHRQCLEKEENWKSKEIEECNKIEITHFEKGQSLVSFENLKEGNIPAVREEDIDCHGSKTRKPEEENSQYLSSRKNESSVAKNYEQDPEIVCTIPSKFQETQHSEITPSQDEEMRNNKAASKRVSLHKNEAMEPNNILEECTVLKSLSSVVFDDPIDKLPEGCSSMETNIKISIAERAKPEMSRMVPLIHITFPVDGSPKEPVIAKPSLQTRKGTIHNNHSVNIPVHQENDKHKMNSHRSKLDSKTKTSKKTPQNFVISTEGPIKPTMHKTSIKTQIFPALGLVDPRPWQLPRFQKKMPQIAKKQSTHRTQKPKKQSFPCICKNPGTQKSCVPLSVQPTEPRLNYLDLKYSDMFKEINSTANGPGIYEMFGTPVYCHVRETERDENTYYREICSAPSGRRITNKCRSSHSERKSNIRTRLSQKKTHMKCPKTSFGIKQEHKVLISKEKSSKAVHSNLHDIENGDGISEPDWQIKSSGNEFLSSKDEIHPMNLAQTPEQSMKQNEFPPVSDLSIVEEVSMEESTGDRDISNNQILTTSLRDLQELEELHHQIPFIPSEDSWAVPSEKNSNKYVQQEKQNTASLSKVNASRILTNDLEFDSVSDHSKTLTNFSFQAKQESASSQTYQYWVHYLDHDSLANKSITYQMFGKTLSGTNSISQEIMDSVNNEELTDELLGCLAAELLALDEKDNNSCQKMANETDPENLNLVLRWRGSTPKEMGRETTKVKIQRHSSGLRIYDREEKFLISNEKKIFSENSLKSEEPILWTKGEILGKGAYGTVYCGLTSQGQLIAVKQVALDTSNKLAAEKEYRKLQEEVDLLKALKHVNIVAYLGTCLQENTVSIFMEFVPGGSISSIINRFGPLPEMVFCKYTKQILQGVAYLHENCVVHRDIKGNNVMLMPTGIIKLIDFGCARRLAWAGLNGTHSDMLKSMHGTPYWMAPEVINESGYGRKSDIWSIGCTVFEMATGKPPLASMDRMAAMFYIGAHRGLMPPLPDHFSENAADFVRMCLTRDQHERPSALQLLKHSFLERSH
Sequence of eIF-2-alpha kinase GCN2 (Homo sapiens), Q9P2K8 [S808G] (Q9P2K8 whole entry S808G, the tested form may be a part): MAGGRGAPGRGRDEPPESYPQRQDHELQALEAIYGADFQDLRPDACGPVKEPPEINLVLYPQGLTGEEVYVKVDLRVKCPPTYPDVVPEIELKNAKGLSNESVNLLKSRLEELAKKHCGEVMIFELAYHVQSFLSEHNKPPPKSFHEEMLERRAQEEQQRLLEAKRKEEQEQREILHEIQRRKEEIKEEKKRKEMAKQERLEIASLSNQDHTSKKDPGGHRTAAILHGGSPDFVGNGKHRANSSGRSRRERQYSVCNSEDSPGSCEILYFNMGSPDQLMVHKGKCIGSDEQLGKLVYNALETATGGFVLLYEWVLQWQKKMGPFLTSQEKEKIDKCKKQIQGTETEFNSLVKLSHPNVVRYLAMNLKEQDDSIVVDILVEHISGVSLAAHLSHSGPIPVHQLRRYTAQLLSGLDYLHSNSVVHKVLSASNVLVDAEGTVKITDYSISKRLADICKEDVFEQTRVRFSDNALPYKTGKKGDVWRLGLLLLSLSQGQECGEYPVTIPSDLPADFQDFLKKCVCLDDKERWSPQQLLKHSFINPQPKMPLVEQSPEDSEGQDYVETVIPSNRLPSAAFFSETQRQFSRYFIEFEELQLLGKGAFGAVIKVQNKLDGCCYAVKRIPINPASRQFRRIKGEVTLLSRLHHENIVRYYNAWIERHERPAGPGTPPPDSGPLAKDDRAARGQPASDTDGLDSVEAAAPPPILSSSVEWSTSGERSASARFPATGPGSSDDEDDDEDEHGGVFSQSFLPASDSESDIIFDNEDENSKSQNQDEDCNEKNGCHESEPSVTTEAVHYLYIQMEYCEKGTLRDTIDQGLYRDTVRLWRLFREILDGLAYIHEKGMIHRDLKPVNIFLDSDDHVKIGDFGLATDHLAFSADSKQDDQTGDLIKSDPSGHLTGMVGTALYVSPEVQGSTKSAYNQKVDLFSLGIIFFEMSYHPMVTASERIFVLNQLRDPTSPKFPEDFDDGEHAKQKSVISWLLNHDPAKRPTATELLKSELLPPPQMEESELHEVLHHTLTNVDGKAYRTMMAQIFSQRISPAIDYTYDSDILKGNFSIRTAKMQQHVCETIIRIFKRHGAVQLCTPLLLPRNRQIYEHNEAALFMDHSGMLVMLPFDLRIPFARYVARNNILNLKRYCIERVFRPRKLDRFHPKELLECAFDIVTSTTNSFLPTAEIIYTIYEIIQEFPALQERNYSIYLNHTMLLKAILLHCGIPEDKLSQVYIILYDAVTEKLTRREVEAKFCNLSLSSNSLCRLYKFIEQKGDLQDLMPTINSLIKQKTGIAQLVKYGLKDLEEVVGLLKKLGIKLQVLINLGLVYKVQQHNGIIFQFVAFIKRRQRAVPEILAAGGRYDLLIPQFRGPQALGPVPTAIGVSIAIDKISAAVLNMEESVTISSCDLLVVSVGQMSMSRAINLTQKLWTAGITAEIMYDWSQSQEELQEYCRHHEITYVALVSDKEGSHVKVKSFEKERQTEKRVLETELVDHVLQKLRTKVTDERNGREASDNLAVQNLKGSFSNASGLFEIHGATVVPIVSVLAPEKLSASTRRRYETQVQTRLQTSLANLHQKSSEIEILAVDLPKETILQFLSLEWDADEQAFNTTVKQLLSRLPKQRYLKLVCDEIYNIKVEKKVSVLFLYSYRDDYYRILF
Sequence of MAP kinase-interacting serine/threonine-protein kinase 1 (Homo sapiens) (Q9BUB5 whole entry, looked up): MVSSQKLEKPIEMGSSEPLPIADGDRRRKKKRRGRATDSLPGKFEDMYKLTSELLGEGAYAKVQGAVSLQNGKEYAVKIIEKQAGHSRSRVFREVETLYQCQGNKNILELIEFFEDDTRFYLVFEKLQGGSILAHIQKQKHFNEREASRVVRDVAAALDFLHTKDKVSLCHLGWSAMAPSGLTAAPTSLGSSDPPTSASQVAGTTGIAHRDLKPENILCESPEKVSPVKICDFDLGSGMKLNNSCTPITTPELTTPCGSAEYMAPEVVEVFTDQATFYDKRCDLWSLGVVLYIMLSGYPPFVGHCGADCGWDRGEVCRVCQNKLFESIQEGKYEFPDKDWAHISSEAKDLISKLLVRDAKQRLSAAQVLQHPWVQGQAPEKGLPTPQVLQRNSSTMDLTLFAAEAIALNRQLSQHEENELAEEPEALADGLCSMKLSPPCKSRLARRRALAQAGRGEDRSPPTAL

Nc1c(C(=O)NCc2ccc(C(=O)NCCCC3CCCCC3)cc2)cnn1-c1ccccc1 [SR-318]
inactive: residual activity [1] 100% | residual activity [2] 100% | residual activity [3] 100% | residual activity [4] 99% | residual activity [5] 100% | residual activity [6] 99% | residual activity [7] 100% | residual activity [8] 81% | residual activity [9] 86% | residual activity [10] 96% | residual activity [11] 100% | residual activity [12] 100% | residual activity [13] 100% | residual activity [14] 100% | residual activity [15] 86% | residual activity [16] 92% | residual activity [17] 100% | inhibition [18] -1.43% | residual activity [19] 100% | residual activity [20] 100% | residual activity [21] 99% | residual activity [22] 100% | residual activity [23] 100% | residual activity [24] 98% | residual activity [25] 100% | residual activity [26] 90% | residual activity [27] 77% | residual activity [28] 100% | residual activity [29] 78% | residual activity [30] 100% | inhibition [31] 21.8% | residual activity [32] 100% | residual activity [33] 91% | residual activity [34] 92% | residual activity [35] 100% | residual activity [36] 100% | residual activity [37] 100% | residual activity [38] 97% | residual activity [39] 100% | residual activity [40] 100% | residual activity [41] 100% | residual activity [42] 100% | residual activity [43] 80% | residual activity [44] 82% | residual activity [45] 100%

O=C(NCCCC1CCCCC1)c1ccc(CNC(=O)c2cnn(-c3ccccc3)c2C(F)(F)F)cc1 [SR-321]
inactive: residual activity [1] 68% | residual activity [2] 100% | residual activity [3] 100% | residual activity [4] 100% | residual activity [5] 100% | residual activity [6] 100% | residual activity [7] 80% | residual activity [8] 100% | residual activity [9] 100% | residual activity [10] 97% | residual activity [11] 100% | residual activity [12] 93% | residual activity [13] 100% | residual activity [14] 100% | residual activity [15] 100% | residual activity [16] 100% | residual activity [17] 100% | inhibition [18] 20.1% | residual activity [19] 100% | residual activity [20] 79% | residual activity [21] 86% | residual activity [22] 99% | residual activity [23] 100% | residual activity [24] 94% | residual activity [25] 97% | residual activity [26] 100% | residual activity [27] 89% | residual activity [28] 94% | residual activity [29] 100% | residual activity [30] 100% | inhibition [31] 21.7% | residual activity [32] 100% | residual activity [33] 100% | residual activity [34] 80% | residual activity [35] 84% | residual activity [36] 78% | residual activity [37] 100% | residual activity [38] 100% | residual activity [39] 100% | residual activity [40] 100% | residual activity [41] 100% | residual activity [42] 100% | residual activity [43] 98% | residual activity [44] 98% | residual activity [45] 77%
